Source: ChEMBL document CHEMBL1128242, “Polyiodinated triglyceride analogs as potential computed tomography imaging agents for the liver” (J Med Chem, 1995)

Key:
[1] = tested on: Rattus norvegicus; assay: Polyacrylamide Gel Electrophoresis (PAGE) to determined the concentration of high density lipoprotein (HDL) in rats after iv administration of [125I]-labeled 2-Oleolyl 1,3-disubstituted triglycerols was reported; type: ADME, organism-based; conditions: in vivo
[2] = tested on: Rattus norvegicus; assay: Distribution of radioactivity was determined in lung at 3h after intravenous administration of [125I]-labeled 2-oleoglycerol 1,3-Bis-[omega-(3-amino-2,4,6-triiodophenyl)alkanoates] in rats; type: ADME, organism-based; conditions: in vivo
[3] = tested on: Rattus norvegicus; assay: Distribution of radioactivity was determined in kidney at 3h after intravenous administration of [125I]-labeled 2-oleoglycerol 1,3-Bis-[omega-(3-amino-2,4,6-triiodophenyl)alkanoates] in rats; type: ADME, organism-based; conditions: in vivo
[4] = tested on: Rattus norvegicus; assay: Distribution of radioactivity was determined in thyroid at 3h after intravenous administration of [125I]-labeled 2-oleoglycerol 1,3-Bis-[omega-(3-amino-2,4,6-triiodophenyl)alkanoates] in rats; type: ADME, organism-based, Thyroid gland; conditions: in vivo
[5] = tested on: Rattus norvegicus; assay: Distribution of radioactivity was determined in liver at 48 hr after intravenous administration of 1,3-Disubstituted Triacylglycerols in rats; type: ADME, organism-based; conditions: in vivo
[6] = tested on: Rattus norvegicus; assay: Analysis of lipid-soluble radioactivity in liver 24 hour after iv administration of [125I]-labeled 2-Oleoyl 1,3-disubstituted Triacylglycerols expressed as %parent compound (by TLC with authentic [125I]-labeled standard) from rat; type: ADME, organism-based; conditions: in vivo
[7] = tested on: Rattus norvegicus; assay: Distribution of radioactivity was determined in spleen at 3h after intravenous administration of [125I]-labeled 2-oleoglycerol 1,3-Bis-[omega-(3-amino-2,4,6-triiodophenyl)alkanoates] in rats; type: ADME, organism-based; conditions: in vivo
[8] = tested on: Rattus norvegicus; assay: Distribution of radioactivity was determined in thyroid at 24 hr after intravenous administration of [125I]-labeled 2-oleoglycerol 1,3-Bis-[omega-(3-amino-2,4,6-triiodophenyl)alkanoates] in rats; type: ADME, organism-based, Thyroid gland; conditions: in vivo
[9] = tested on: Rattus norvegicus; assay: Distribution of radioactivity was determined in liver at 24 hr after intravenous administration of [125I]-labeled 2-oleoglycerol 1,3-Bis-[omega-(3-amino-2,4,6-triiodophenyl)alkanoates] in rats; type: ADME, organism-based; conditions: in vivo
[10] = tested on: Rattus norvegicus; assay: Distribution of radioactivity was determined in heart at 24 after intravenous administration of [125I]-labeled 2-oleoglycerol 1,3-Bis-[omega-(3-amino-2,4,6-triiodophenyl)alkanoates] in rats; type: ADME, organism-based; conditions: in vivo
[11] = tested on: Rattus norvegicus; assay: Distribution of radioactivity was determined in blood at 30 min after intravenous administration of 1,3-Disubstituted Triacylglycerols in rats; type: ADME, organism-based; conditions: in vivo, 0.5 h
[12] = tested on: Rattus norvegicus; assay: Analysis of lipid-soluble radioactivity in plasma 24 hour after iv administration of [125I]-labeled 2-Oleoyl 1,3-disubstituted Triacylglycerols and represented as % CHCl3/CH3OH from rat; type: ADME, organism-based; conditions: in vivo
[13] = tested on: Rattus norvegicus; assay: Analysis of lipid-soluble radioactivity in liver 0.5 hour after iv administration of [125I]-labeled 2-Oleoyl 1,3-disubstituted Triacylglycerols and represented as % CHCl3/CH3OH from rat; type: ADME, organism-based; conditions: in vivo
[14] = tested on: Rattus norvegicus; assay: Distribution of radioactivity was determined in thyroid at 30 min after intravenous administration of [125I]-labeled 2-oleoglycerol 1,3-Bis-[omega-(3-amino-2,4,6-triiodophenyl)alkanoates] in rats; type: ADME, organism-based, Thyroid gland; conditions: in vivo, 0.5 h
[15] = tested on: Rattus norvegicus; assay: Distribution of radioactivity was determined in blood at 48 hr after intravenous administration of 1,3-Disubstituted Triacylglycerols in rats; type: ADME, organism-based; conditions: in vivo
[16] = tested on: Rattus norvegicus; assay: Distribution of radioactivity was determined in liver at 30 min after intravenous administration of [125I]-labeled 2-oleoglycerol 1,3-Bis-[omega-(3-amino-2,4,6-triiodophenyl)alkanoates] in rats; type: ADME, organism-based; conditions: in vivo, 0.5 h
[17] = tested on: Rattus norvegicus; assay: Distribution of radioactivity was determined in plasma at 24 hr after intravenous administration of [125I]-labeled 2-oleoglycerol 1,3-Bis-[omega-(3-amino-2,4,6-triiodophenyl)alkanoates] in rats; type: ADME, organism-based; parameters: unit not given here; conditions: in vivo
[18] = tested on: Rattus norvegicus; assay: Distribution of radioactivity was determined in blood at 24 hr after intravenous administration of 1,3-Disubstituted Triacylglycerols in rats; type: ADME, organism-based; conditions: in vivo
[19] = tested on: Rattus norvegicus; assay: Analysis of lipid-soluble radioactivity in liver 24 hour after iv administration of [125I]-labeled 2-Oleoyl 1,3-disubstituted Triacylglycerols and represented as % CHCl3/CH3OH from rat; type: ADME, organism-based; conditions: in vivo
[20] = tested on: Rattus norvegicus; assay: Distribution of radioactivity was determined in blood at 3h after intravenous administration of [125I]-labeled 2-oleoglycerol 1,3-Bis-[omega-(3-amino-2,4,6-triiodophenyl)alkanoates] in rats; type: ADME, organism-based; conditions: in vivo
[21] = tested on: Rattus norvegicus; assay: Distribution of radioactivity was determined in spleen at 24 hr after intravenous administration of [125I]-labeled 2-oleoglycerol 1,3-Bis-[omega-(3-amino-2,4,6-triiodophenyl)alkanoates] in rats; type: ADME, organism-based; conditions: in vivo
[22] = tested on: Rattus norvegicus; assay: Distribution of radioactivity was determined in plasma at 30 min after intravenous administration of [125I]-labeled 2-oleoglycerol 1,3-Bis-[omega-(3-amino-2,4,6-triiodophenyl)alkanoates] in rats; type: ADME, organism-based; conditions: in vivo, 0.5 h
[23] = tested on: Rattus norvegicus; assay: Distribution of radioactivity was determined in lung at 24 hr after intravenous administration of [125I]-labeled 2-oleoglycerol 1,3-Bis-[omega-(3-amino-2,4,6-triiodophenyl)alkanoates] in rats; type: ADME, organism-based; conditions: in vivo
[24] = tested on: Rattus norvegicus; assay: Distribution of radioactivity was determined in plasma at 3h after intravenous administration of [125I]-labeled 2-oleoglycerol 1,3-Bis-[omega-(3-amino-2,4,6-triiodophenyl)alkanoates] in rats; type: ADME, organism-based; conditions: in vivo
[25] = tested on: Rattus norvegicus; assay: Distribution of radioactivity was determined in spleen at 48 hr after intravenous administration of 1,3-Disubstituted Triacylglycerols in rats; type: ADME, organism-based; conditions: in vivo
[26] = tested on: Rattus norvegicus; assay: Distribution of radioactivity was determined in liver at 3h after intravenous administration of 1,3-Disubstituted Triacylglycerols in rats; type: ADME, organism-based; conditions: in vivo
[27] = tested on: Rattus norvegicus; assay: Distribution of radioactivity was determined in heart at 3h after intravenous administration of [125I]-labeled 2-oleoglycerol 1,3-Bis-[omega-(3-amino-2,4,6-triiodophenyl)alkanoates] in rats; type: ADME, organism-based; conditions: in vivo
[28] = tested on: Rattus norvegicus; assay: Distribution of radioactivity was determined in spleen at 30 min after intravenous administration of [125I]-labeled 2-oleoglycerol 1,3-Bis-[omega-(3-amino-2,4,6-triiodophenyl)alkanoates] in rats; type: ADME, organism-based; conditions: in vivo, 0.5 h
[29] = tested on: Rattus norvegicus; assay: Distribution of radioactivity was determined in lung at 30 min after intravenous administration of [125I]-labeled 2-oleoglycerol 1,3-Bis-[omega-(3-amino-2,4,6-triiodophenyl)alkanoates] in rats; type: ADME, organism-based; conditions: in vivo, 0.5 h
[30] = tested on: Rattus norvegicus; assay: Distribution of radioactivity was determined in blood at 3h after intravenous administration of 1,3-Disubstituted Triacylglycerols in rats; type: ADME, organism-based; conditions: in vivo
[31] = tested on: Rattus norvegicus; assay: Polyacrylamide Gel Electrophoresis (PAGE) to determined the concentration of albumin(ALB) in rats after iv administration of [125I]-labeled 2-Oleolyl 1,3-disubstituted triglycerols was reported; type: ADME, organism-based; conditions: in vivo
[32] = tested on: Rattus norvegicus; assay: Analysis of lipid-soluble radioactivity in liver 0.5 hour after iv administration of [125I]-labeled 2-Oleoyl 1,3-disubstituted Triacylglycerols expressed as %parent compound (by TLC with authentic [125I]-labeled standard) from rat; type: ADME, organism-based; conditions: in vivo
[33] = tested on: Rattus norvegicus; assay: Polyacrylamide Gel Electrophoresis (PAGE) to determined the concentration of stacking gel(SG) in rats after iv administration of [125I]-labeled 2-Oleolyl 1,3-disubstituted triglycerols was reported; type: ADME, organism-based; conditions: in vivo
[34] = tested on: Rattus norvegicus; assay: Distribution of radioactivity was determined in liver at 30 min after intravenous administration of 1,3-Disubstituted Triacylglycerols in rats; type: ADME, organism-based; conditions: in vivo, 0.5 h
[35] = tested on: Rattus norvegicus; assay: Distribution of radioactivity was determined in spleen at 24 hr after intravenous administration of 1,3-Disubstituted Triacylglycerols in rats; type: ADME, organism-based; conditions: in vivo

Radioactivity [1]: 0.3%
Distribution of radioactivity [2]: 0.34 % dose/g
Distribution of radioactivity [3]: 0.18 % dose/g
Distribution of radioactivity [4]: 1.69 % dose/g
Distribution of radioactivity [5]: 4.4 % dose/organ
Lipid-soluble radioactivity [6]: 0
Distribution of radioactivity [7]: 15.3 % dose/g
Distribution of radioactivity [8]: 6.53 % dose/g
Distribution of radioactivity [9]: 1.1 % dose/g
Distribution of radioactivity [10]: 0.1 % dose/g
Distribution of radioactivity [11]: 6.6 % dose/organ
Lipid-soluble radioactivity [12]: 15.3
Lipid-soluble radioactivity [13]: 56
Distribution of radioactivity [14]: 0.31 % dose/g
Distribution of radioactivity [15]: 0.4 % dose per organ
Distribution of radioactivity [16]: 7.23 % dose/g
Distribution of radioactivity [17]: 0.21
Distribution of radioactivity [18]: 2.5 % dose/organ
Lipid-soluble radioactivity [19]: 30.2
Distribution of radioactivity [20]: 0.28 % dose/g
Distribution of radioactivity [21]: 1.43 % dose/g
Distribution of radioactivity [22]: 0.83 % dose/g
Distribution of radioactivity [23]: 0.29 % dose/g
Distribution of radioactivity [24]: 0.29 % dose/g
Distribution of radioactivity [25]: 0.3 % dose per organ
Distribution of radioactivity [26]: 45.8 % dose/organ
Distribution of radioactivity [27]: 0.22 % dose/g
Distribution of radioactivity [28]: 21.8 % dose/g
Distribution of radioactivity [29]: 0.66 % dose/g
Distribution of radioactivity [30]: 2.7 % dose/organ
Radioactivity [31]: 66.3%
Lipid-soluble radioactivity [32]: 91.9
Radioactivity [33]: 28.1%
Radioactivity per organ [34]: 67.7 % dose/organ
Distribution of radioactivity [35]: 0.8 % dose/organ
SMILES: CCCCCCCC/C=C/CCCCCCCC(=O)OC(COC(=O)CCCCCCc1c(I)cc(I)c(N)c1I)COC(=O)CCCCCCc1c(I)cc(I)c(N)c1I
